Test results as given in ChEMBL document CHEMBL3885881, “DrugMatrix”.

Species: Rattus norvegicus
Test: DrugMatrix - Regimen: Daily Repeat
Type: toxicity, organism-based, Sprague-Dawley
Design: regimen Daily Repeat, gender Male, age 6-8 weeks
Settings: in vivo, po, route oral GAVAGE, vehicle .5 % CMC; for ABSOLUTE BASOPHIL / ABSOLUTE EOSINOPHIL / ABSOLUTE LYMPHOCYTE / ABSOLUTE MONOCYTE / ABSOLUTE SEGMENTED NEUTROPHIL / BASOPHIL / EOSINOPHIL / HEMATOCRIT / LEUKOCYTE COUNT / LYMPHOCYTE / MEAN CORPUSCULAR HEMOGLOBIN / MEAN CORPUSCULAR HEMOGLOBIN CONCENTRATION / MEAN CORPUSCULAR VOLUME / MONOCYTE / NEUTROPHIL / NUCLEATED RED BLOOD CELLS / PLATELET COUNT: tissue Blood; for ALANINE AMINOTRANSFERASE / ALBUMIN / ALKALINE PHOSPHATASE / ASPARTATE AMINOTRANSFERASE / BLOOD UREA NITROGEN / CARBON DIOXIDE / CHLORIDE / CHOLESTEROL / CREATININE / GLUCOSE / LACTATE DEHYDROGENASE / LIPASE / PHOSPHORUS / TOTAL BILIRUBIN / TOTAL PROTEIN / URIC ACID / SODIUM: tissue Plasma
[1] = 0 mg/kg, 72 h, dose level Control, time 3 day
[2] = 0 mg/kg, 120 h, dose level Control, time 5 day
[3] = 23 mg/kg, 72 h, dose level High, time 3 day

In the case of `Cc1cc2c(s1)Nc1ccccc1N=C2N1CCN(C)CC1` [OLANZAPINE], the “ABSOLUTE BASOPHIL” value [1] is reported as 0 CELLS/uL, the “ABSOLUTE EOSINOPHIL” value [1] is reported as 47.67 CELLS/uL and the “ABSOLUTE LYMPHOCYTE” value [1] is reported as 15937.67 CELLS/uL. The “ABSOLUTE MONOCYTE” value [1] was 138.33 CELLS/uL, the “ABSOLUTE SEGMENTED NEUTROPHIL” value [1] was 1443 CELLS/uL and the BASOPHIL [1] was 0%. For the same compound, the EOSINOPHIL [1] was 0.33%, the HEMATOCRIT [1] was 34.43% and the “LEUKOCYTE COUNT” value [1] was 17.57 x10E3/uL. For the same compound, the LYMPHOCYTE [1] was 90.33%, the “MEAN CORPUSCULAR HEMOGLOBIN” value [1] was 24.6 pg and the “MEAN CORPUSCULAR HEMOGLOBIN CONCENTRATION” value [1] was 38.88 G/DL. The “MEAN CORPUSCULAR VOLUME” value [1] was 63.27 fL, the MONOCYTE [1] was 0.83% and the NEUTROPHIL [1] was 8.5%. The “NUCLEATED RED BLOOD CELLS” value [1] was 0 /100WBC, the “PLATELET COUNT” value [1] was 1298 x10E3/uL and the “ALANINE AMINOTRANSFERASE” value [1] was 47.67 u/L. The ALBUMIN [1] was 4.18 G/DL, the “ALKALINE PHOSPHATASE” value [1] was 398.5 u/L and the “ASPARTATE AMINOTRANSFERASE” value [1] was 93.17 u/L. For the same compound, the “BLOOD UREA NITROGEN” value [1] was 16 mg/dL, the “CARBON DIOXIDE” value [1] was 29.17 mmol/L and the CHLORIDE [1] was 98.17 MEQ/L. It also gave a CHOLESTEROL [1] of 68.83 mg/dL, a CREATININE [1] of 0.14 mg/dL and a GLUCOSE [1] of 151.67 mg/dL. For the same compound, the “LACTATE DEHYDROGENASE” value [1] was 597.5 u/L, the LIPASE [1] was 9.33 u/L and the PHOSPHORUS [1] was 11.97 mg/dL. For the same compound, the “TOTAL BILIRUBIN” value [1] was 0.18 mg/dL, the “TOTAL PROTEIN” value [1] was 5.82 G/DL and the “URIC ACID” value [1] was 1.48 mg/dL. The “ABSOLUTE BASOPHIL” value [2] was 0 CELLS/uL, the “ABSOLUTE EOSINOPHIL” value [2] was 31 CELLS/uL and the “ABSOLUTE LYMPHOCYTE” value [2] was 14327.83 CELLS/uL. For the same compound, the “ABSOLUTE MONOCYTE” value [2] was 102.83 CELLS/uL, the “ABSOLUTE SEGMENTED NEUTROPHIL” value [2] was 1321.67 CELLS/uL and the BASOPHIL [2] was 0%. For the same compound, the EOSINOPHIL [2] was 0.17%, the HEMATOCRIT [2] was 36.1% and the “LEUKOCYTE COUNT” value [2] was 15.78 x10E3/uL. For the same compound, the LYMPHOCYTE [2] was 90.5%, the “MEAN CORPUSCULAR HEMOGLOBIN” value [2] was 24.48 pg and the “MEAN CORPUSCULAR HEMOGLOBIN CONCENTRATION” value [2] was 39.22 G/DL. For the same compound, the “MEAN CORPUSCULAR VOLUME” value [2] was 62.4 fL, the MONOCYTE [2] was 0.67% and the NEUTROPHIL [2] was 8.67%. For the same compound, the “NUCLEATED RED BLOOD CELLS” value [2] was 0.17 /100WBC, the “PLATELET COUNT” value [2] was 1211.67 x10E3/uL and the “ALANINE AMINOTRANSFERASE” value [2] was 49 u/L. The ALBUMIN [2] was 4.27 G/DL, the “ALKALINE PHOSPHATASE” value [2] was 356.67 u/L and the “ASPARTATE AMINOTRANSFERASE” value [2] was 90.17 u/L. For the same compound, the “BLOOD UREA NITROGEN” value [2] was 20.5 mg/dL, the “CARBON DIOXIDE” value [2] was 29.17 mmol/L and the CHLORIDE [2] was 98 MEQ/L. For the same compound, the CHOLESTEROL [2] was 69.83 mg/dL, the CREATININE [2] was 0.21 mg/dL and the GLUCOSE [2] was 149.83 mg/dL. The “LACTATE DEHYDROGENASE” value [2] was 322 u/L, the LIPASE [2] was 10 u/L and the PHOSPHORUS [2] was 12 mg/dL. For the same compound, the SODIUM [2] was 142.8 MEQ/L, the “TOTAL BILIRUBIN” value [2] was 0.17 mg/dL and the “TOTAL PROTEIN” value [2] was 6.1 G/DL. The “URIC ACID” value [2] was 1.68 mg/dL, the “ABSOLUTE BASOPHIL” value [3] was 0 CELLS/uL and the “ABSOLUTE EOSINOPHIL” value [3] was 0 CELLS/uL. The “ABSOLUTE LYMPHOCYTE” value [3] was 12570 CELLS/uL, the “ABSOLUTE MONOCYTE” value [3] was 145.67 CELLS/uL and the “ABSOLUTE SEGMENTED NEUTROPHIL” value [3] was 851 CELLS/uL. For the same compound, the BASOPHIL [3] was 0%, the EOSINOPHIL [3] was 0% and the HEMATOCRIT [3] was 37.27%. For the same compound, the “LEUKOCYTE COUNT” value [3] was 13.57 x10E3/uL, the LYMPHOCYTE [3] was 92.67% and the “MEAN CORPUSCULAR HEMOGLOBIN” value [3] was 24.63 pg. For the same compound, the “MEAN CORPUSCULAR HEMOGLOBIN CONCENTRATION” value [3] was 39.1 G/DL, the “MEAN CORPUSCULAR VOLUME” value [3] was 63 fL and the MONOCYTE [3] was 1%. For the same compound, the NEUTROPHIL [3] was 6.33%, the “NUCLEATED RED BLOOD CELLS” value [3] was 0 /100WBC and the “PLATELET COUNT” value [3] was 1303 x10E3/uL. The “ALANINE AMINOTRANSFERASE” value [3] was 52 u/L, the ALBUMIN [3] was 4.4 G/DL and the “ALKALINE PHOSPHATASE” value [3] was 415.67 u/L. For the same compound, the “ASPARTATE AMINOTRANSFERASE” value [3] was 84 u/L, the “BLOOD UREA NITROGEN” value [3] was 21.33 mg/dL and the “CARBON DIOXIDE” value [3] was 26.33 mmol/L. The CHLORIDE [3] was 102 MEQ/L, the CHOLESTEROL [3] was 86.67 mg/dL and the CREATININE [3] was 0.21 mg/dL. The GLUCOSE [3] was 155.67 mg/dL, the “LACTATE DEHYDROGENASE” value [3] was 203.33 u/L and the LIPASE [3] was 9.67 u/L. For the same compound, the PHOSPHORUS [3] was 11.47 mg/dL, the SODIUM [3] was 144.27 MEQ/L and the “TOTAL BILIRUBIN” value [3] was 0.23 mg/dL. For the same compound, the “TOTAL PROTEIN” value [3] was 5.97 G/DL and the “URIC ACID” value [3] was 1.83 mg/dL.
